Assay results: patent publication US7094761B2, “Methods and compounds for prevention and treatment of elevated intraocular pressure and related conditions” (Theratechnologies Inc., priority 2002, dated 2006)

System: intraocular pressure in piglets
Settings: for IC50: pig, in vivo; for effect on basal intraocular pressure: piglet, peptide in saline applied topically as drops, monitored for 15 min
Procedure: Method: Newborn pigs (1–3 days old) were anesthetized with 1.5% halothane for tracheostomy and catheterization of the right femoral vein for drug administration. Animals were ventilated by means of a Harvard small animal respirator with a gas mixture of 25% O2 and 75% N2. Halothane was discontinued after surgery and immediately thereafter the animals were sedated with Alpha-chloralose (50 mg/kg i.v.) and paralyzed with pancuronium (0.1 mg/kg i.v.). Animals were placed under radiant warmer to keep their body temperature at 37° C. A butterfly needle (24G) is inserted into the anterior chamber of both eyes and connected to a Statham pressure transducer connected to a Gould multichannel recorder. Intraocular pressure is then allowed to stabilize for 15 minutes. […] The intraocular pressure was monitored for 15 minutes at which time a maximal effect was observed.
Peptides dissolved in saline were applied to the eye after 15 min of stabilization of intraocular pressure and changes in pressure were monitored for 15 min. The deviation (negative for hypotension) was plotted as a function of time (min).
The experiments were done as above, except that intraocular pressure was plotted versus the dose of peptide used.

## H-HIICSPLR-OH [Peptide 1402, NH2-His Ile Ile Cys Ser Pro Leu Arg-OH]
  IC50: 86.4 nM
  effect on basal intraocular pressure: produced a decrease in ocular pressure

## CC[C@H](C)[C@H](N)C(=O)N[C@@H](Cc1ccccc1)C(=O)N[C@@H](CC(=O)O)C(=O)N[C@@H](CO)C(=O)N[C@H](C(=O)N[C@@H](CCC(=O)O)C(=O)N[C@@H](CS)C(=O)N[C@@H](Cc1c[nH]c2ccccc12)C(=O)O)[C@@H](C)O [Peptide 1405, NH2-Ile Phe Asp Ser Thr Gln Cys Trp-OH]
  IC50: 342 nM
  effect on basal intraocular pressure: produced a decrease in ocular pressure

## NH2-Phe Ser Leu Thr Gln Lys Tyr Cys-OH (H-FSLTQKYC-OH) [Peptide 1401]
  effect on basal intraocular pressure: produced a decrease in ocular pressure
